From patent US20250099515A1, “LACTOBACILLUS ACIDOPHILUS TO INCREASE AGMATINE PRODUCTION BY MICROBIOTA” (SOCIETE DES PRODUITS NESTLE S.A., priority 2021, published 2025)
“And” between values parts separate entries of the source, which are not always exact repeats. Identical values can stand only once. Like-named read-outs stand apart in the source and are kept apart here.

How the values were obtained:
[1] = target: I2-Imidazoline binding sites; conditions: Rat aorta smooth muscle cells; cited from earlier work
[2] = target: I2-Imidazoline binding sites; conditions: Bovine adrenal chromaffin cells; cited from earlier work
[3] = target: I2-Imidazoline binding sites; conditions: Human platelet-purified internal membranes; cited from earlier work
[4] = target: I2-Imidazoline binding sites; conditions: Frog whole brain membranes; cited from earlier work
[5] = target: I2-Imidazoline binding sites; conditions: Human atrial appendages; cited from earlier work
[6] = tested on: mouse kidney proximal tubule, Ras transformed NIH-3T3 fibroblast, mouse glomerular mesangial, human Schwann tumor, rat glomerular endothelial cells, human …; conditions: several ex-vivo and in-vitro cell assays; cited from earlier work
α2C-Adrenoceptors = α2C-Adrenoceptors (Homo sapiens, UniProt P18825); conditions: Human recombinant receptor; cited from earlier work
[7] = tested on: Presynaptic imidazoline receptor; conditions: Rabbit aorta; at 0.1 and 1 μM; cited from earlier work
[8] = target: NMDA receptor, polyamine binding site; conditions: Rat cerebral cortex; cited from earlier work
[9] = target: Nicotinic acetylcholine receptors; conditions: Chick retina; cited from earlier work
α2B-Adrenoceptors = α2B-Adrenoceptors (Homo sapiens, UniProt P18089); conditions: Human recombinant receptor; cited from earlier work
Sequence of α2B-Adrenoceptors (P18089 whole entry): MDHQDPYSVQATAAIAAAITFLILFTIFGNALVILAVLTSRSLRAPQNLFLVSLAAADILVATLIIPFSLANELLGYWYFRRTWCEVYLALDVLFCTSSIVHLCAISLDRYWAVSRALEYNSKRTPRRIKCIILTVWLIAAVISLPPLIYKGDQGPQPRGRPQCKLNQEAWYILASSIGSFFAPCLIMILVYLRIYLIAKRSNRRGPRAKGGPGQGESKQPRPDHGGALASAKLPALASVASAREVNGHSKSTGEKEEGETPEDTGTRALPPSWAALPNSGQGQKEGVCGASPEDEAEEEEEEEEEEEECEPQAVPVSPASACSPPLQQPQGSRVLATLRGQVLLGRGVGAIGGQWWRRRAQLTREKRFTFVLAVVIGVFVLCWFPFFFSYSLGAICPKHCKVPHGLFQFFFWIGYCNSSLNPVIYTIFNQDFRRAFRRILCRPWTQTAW

5-HT3 receptor = 5-HT3 receptor (Mus musculus, UniProt P23979); conditions: Mouse N1E-115 cells; cited from earlier work
Sequence of 5-HT3 receptor (P23979 24-489): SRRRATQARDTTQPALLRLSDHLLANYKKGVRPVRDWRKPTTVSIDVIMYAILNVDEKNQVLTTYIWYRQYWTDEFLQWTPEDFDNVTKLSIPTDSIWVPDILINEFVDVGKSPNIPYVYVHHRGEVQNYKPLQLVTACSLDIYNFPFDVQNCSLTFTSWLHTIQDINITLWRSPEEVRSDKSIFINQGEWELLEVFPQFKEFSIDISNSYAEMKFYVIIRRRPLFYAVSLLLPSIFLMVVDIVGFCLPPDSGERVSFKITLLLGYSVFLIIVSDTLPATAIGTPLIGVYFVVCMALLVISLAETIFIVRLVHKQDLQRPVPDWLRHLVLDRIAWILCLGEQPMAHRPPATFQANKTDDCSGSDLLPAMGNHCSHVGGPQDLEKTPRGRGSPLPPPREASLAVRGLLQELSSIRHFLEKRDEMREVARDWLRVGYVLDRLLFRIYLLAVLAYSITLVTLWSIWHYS

[10] = target: I2-Imidazoline binding sites; conditions: Rabbit whole brain membranes; cited from earlier work
[11] = target: NMDA receptor, NR1-ζ/NR2-ε4 (Mus musculus, UniProt P35438+Q03391); conditions: Recombinant receptor; cited from earlier work
Sequence of NMDA receptor, NR1-ζ/NR2-ε4 (Q03391 28-1323, other chains not shown): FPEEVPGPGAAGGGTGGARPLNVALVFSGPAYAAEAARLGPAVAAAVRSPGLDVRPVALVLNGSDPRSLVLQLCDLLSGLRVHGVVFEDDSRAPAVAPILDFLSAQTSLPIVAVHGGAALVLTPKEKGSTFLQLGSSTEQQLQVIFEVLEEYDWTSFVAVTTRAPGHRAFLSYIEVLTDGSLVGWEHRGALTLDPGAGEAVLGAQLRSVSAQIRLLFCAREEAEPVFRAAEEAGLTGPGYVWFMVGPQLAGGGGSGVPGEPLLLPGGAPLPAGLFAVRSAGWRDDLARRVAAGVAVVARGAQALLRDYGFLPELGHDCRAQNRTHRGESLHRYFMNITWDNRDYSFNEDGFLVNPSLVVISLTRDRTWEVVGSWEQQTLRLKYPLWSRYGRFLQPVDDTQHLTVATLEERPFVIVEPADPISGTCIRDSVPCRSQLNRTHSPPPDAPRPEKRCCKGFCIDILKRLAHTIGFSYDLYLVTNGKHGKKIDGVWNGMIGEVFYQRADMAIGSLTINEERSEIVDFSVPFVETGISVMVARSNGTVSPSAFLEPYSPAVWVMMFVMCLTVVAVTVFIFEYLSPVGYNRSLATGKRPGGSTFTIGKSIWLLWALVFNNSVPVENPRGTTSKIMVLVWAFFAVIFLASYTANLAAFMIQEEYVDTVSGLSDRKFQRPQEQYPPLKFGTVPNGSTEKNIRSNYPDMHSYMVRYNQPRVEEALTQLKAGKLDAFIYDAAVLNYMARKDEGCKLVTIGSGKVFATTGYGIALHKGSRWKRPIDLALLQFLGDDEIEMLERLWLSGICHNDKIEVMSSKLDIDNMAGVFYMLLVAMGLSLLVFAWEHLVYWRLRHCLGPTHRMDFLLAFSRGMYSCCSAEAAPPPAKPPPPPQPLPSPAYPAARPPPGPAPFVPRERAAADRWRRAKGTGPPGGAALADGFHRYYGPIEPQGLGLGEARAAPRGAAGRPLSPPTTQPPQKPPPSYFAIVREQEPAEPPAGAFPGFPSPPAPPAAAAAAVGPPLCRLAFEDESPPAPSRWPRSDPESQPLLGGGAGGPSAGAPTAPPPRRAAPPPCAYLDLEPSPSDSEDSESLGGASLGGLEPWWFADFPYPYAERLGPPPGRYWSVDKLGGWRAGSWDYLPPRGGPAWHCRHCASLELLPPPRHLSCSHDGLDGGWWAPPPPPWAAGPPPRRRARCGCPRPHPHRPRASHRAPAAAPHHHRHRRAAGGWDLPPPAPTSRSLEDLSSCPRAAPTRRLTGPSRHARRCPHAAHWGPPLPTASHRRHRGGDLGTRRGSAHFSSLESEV

[12] = target: I2-Imidazoline binding sites; conditions: Bovine endothelial cells; cited from earlier work
σ2-Binding sites [13] = target: σ2-Binding sites (Mus musculus, UniProt Q8VD00); conditions: Mouse N1E-115 cells; cited from earlier work
Sequence of σ2-Binding sites (Mus musculus, UniProt Q8VD00) (Q8VD00 whole entry): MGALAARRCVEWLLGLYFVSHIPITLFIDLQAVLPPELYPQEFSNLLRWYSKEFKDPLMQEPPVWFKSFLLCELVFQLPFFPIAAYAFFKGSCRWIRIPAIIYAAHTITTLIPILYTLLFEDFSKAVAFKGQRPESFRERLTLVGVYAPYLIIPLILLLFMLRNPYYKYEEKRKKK

[14] = target: I1-Imidazoline binding sites; conditions: Human platelet-purified plasma membranes; cited from earlier work
[15] = target: I1-Imidazoline binding sites; conditions: Rat stomach membranes; cited from earlier work
[16] = target: I1-Imidazoline binding sites; conditions: Bovine ventrolateral medulla; cited from earlier work
α2A-Adrenoceptors = α2A-Adrenoceptors (Homo sapiens, UniProt P08913); conditions: Human recombinant receptor; cited from earlier work
[17] = target: NMDA receptor, NR1-ζ/NR2-ε3 (Mus musculus, UniProt P35438+Q01098); conditions: Recombinant receptor; cited from earlier work
Sequence of NMDA receptor, NR1-ζ/NR2-ε3 (Q01098 20-1239, other chains not shown): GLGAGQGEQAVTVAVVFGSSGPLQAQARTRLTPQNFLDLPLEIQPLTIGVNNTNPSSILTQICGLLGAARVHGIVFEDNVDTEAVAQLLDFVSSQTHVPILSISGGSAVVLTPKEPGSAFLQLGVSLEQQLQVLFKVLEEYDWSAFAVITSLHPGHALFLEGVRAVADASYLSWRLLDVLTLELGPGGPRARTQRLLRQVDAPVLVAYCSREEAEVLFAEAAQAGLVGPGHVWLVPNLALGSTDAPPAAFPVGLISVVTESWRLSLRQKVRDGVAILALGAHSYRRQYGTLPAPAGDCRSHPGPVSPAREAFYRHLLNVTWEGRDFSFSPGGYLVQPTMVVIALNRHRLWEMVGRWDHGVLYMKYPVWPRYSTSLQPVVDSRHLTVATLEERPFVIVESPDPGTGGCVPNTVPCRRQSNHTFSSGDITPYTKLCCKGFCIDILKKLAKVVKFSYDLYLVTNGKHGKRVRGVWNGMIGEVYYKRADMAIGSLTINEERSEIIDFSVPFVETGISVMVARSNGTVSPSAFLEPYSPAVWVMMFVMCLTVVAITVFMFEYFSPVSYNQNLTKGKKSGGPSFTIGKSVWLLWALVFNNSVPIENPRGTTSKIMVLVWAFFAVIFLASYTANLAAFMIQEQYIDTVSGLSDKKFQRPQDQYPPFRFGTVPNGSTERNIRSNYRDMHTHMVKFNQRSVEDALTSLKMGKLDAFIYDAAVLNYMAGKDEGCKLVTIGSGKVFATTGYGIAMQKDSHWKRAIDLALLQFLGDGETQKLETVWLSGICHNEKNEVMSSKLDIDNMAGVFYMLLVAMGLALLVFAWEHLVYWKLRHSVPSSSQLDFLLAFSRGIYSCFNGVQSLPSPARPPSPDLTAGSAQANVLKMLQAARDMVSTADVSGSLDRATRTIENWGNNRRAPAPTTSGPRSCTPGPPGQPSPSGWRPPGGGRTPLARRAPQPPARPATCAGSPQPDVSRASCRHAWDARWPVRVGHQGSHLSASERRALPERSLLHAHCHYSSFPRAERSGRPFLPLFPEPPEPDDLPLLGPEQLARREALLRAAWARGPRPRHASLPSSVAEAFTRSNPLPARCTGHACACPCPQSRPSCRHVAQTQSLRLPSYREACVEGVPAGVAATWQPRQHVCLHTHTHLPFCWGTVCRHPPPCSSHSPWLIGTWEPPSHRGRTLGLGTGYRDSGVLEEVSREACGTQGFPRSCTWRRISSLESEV

NMDA receptor = target: T1, NMDA receptor; conditions: Rat cerebral membrane; cited from earlier work
T1 construct: Ki; other: Rat cerebral membrane

[18] = target: Presynaptic imidazoline receptor; conditions: Human atrial appendages; cited from earlier work
[19] = tested on: ODC and SSAT in liver and kidney; conditions: 456.6 mg/kg i.p., suiss female mice; cited from earlier work
[20] = target: I2-Imidazoline binding sites; conditions: Rat whole brain membranes; cited from earlier work
[21] = target: NMDA receptor, NR1-ζ/NR2-ε1 (Mus musculus, UniProt P35436+P35438); conditions: Recombinant receptor; cited from earlier work
Sequence of NMDA receptor, NR1-ζ/NR2-ε1 (P35436 20-1464 limits assumed, other chains not shown): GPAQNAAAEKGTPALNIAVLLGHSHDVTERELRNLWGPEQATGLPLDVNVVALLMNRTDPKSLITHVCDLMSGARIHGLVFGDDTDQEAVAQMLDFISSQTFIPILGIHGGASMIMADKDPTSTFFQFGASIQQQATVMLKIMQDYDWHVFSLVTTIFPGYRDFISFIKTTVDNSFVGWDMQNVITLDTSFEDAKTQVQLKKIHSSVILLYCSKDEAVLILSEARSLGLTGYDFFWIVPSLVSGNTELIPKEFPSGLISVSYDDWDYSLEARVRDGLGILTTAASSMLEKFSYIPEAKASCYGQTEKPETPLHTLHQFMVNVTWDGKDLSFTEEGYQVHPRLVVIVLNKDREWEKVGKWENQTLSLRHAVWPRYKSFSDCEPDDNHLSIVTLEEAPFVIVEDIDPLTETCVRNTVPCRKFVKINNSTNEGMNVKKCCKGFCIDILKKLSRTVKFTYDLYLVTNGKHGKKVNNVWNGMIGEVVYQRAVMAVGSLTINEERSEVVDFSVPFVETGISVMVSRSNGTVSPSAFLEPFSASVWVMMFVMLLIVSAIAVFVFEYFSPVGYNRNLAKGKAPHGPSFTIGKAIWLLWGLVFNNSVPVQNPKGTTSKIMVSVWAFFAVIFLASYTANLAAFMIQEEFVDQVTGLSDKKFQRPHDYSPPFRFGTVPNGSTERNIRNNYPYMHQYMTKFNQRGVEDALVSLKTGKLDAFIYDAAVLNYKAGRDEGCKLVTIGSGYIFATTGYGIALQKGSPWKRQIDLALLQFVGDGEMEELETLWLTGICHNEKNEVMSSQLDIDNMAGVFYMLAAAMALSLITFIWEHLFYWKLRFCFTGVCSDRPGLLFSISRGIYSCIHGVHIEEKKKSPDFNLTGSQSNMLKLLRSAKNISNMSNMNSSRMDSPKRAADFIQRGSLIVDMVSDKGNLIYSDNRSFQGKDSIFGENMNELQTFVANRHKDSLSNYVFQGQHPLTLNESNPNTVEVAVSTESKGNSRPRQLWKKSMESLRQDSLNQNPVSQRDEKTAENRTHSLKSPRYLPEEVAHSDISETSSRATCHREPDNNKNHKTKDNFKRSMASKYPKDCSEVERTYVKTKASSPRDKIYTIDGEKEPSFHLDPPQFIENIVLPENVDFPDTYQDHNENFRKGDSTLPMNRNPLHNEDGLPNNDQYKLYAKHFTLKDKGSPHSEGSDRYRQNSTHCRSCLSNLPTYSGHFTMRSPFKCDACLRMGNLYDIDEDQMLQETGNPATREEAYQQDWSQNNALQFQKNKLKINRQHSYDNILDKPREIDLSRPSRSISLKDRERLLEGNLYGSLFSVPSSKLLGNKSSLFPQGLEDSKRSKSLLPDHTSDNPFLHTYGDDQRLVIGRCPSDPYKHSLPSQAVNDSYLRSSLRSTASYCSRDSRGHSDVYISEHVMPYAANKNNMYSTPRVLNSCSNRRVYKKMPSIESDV

α-2 adrenoreceptors = conditions: depending on organs/cell type; read-out: Affinity for α-2 adrenoreceptors (Ki); cited from earlier work
α2-Adrenoceptors = conditions: Bovine adrenal cortex; cited from earlier work
[22] = target: I1-Imidazoline binding sites; conditions: Bovine adrenomedullary cell; cited from earlier work
[23] = target: I2-Imidazoline binding sites; conditions: Chicken brain membranes; cited from earlier work
[24] = target: NMDA receptor, MK-801 binding site; conditions: Rat cerebral cortex; cited from earlier work
[25] = target: NMDA receptor, NR1-ζ/NR2-ε2 (Mus musculus, UniProt P35438+Q01097); conditions: Recombinant receptor; cited from earlier work
HTC rat hepatoma cells = conditions: cited from earlier work
[26] = target: I2-Imidazoline binding sites; conditions: Rat stomach membranes; cited from earlier work
σ2-Binding sites [27] = target: σ2-Binding sites (Rattus norvegicus, UniProt Q5U3Y7); conditions: Rat stomach membranes; cited from earlier work
Sequence of σ2-Binding sites (Rattus norvegicus, UniProt Q5U3Y7) (Q5U3Y7 whole entry): as the sequence (Q8VD00 whole entry) above, with L4V, A5T, L26M, V33L, L71F, A105V, L118I, V127I, S136N, Y169F counted along it

[28] = cited from earlier work
colonic microbiota = assay: Prodigest short-term colonic incubations with fecal inocula of five donors; format: cell-based, human; conditions: FIG. 5
Description: Fecal material was collected from five healthy adult donors. Fecal suspensions were prepared and mixed with an internally optimized cryoprotectant. The obtained suspensions were aliquoted, flash frozen and then preserved at −80° C. (cryostock). Just before the experiment, fecal samples were defrosted and immediately added to the reactors. A short-term screening assay typically consists of a colonic incubation of a single dose of a test compound under conditions representative for the proximal large intestine, using bacterial inocula from selected donors as microbial sources. At the start of the short-term colonic incubations, test ingredients were added to a sugar-depleted nutritional medium containing basal nutrients of the colon. Because nutrients of this sugar-depleted nutritional medium will also be fermented by the colonic microbiota, a blank containing only the sugar-depleted nutritional medium (without product) was included for each donor. Finally, fecal inocula of five donors were added (healthy adult humans with no history of antibiotic use 6 months preceding the experiment). […] Reactors were incubated for 48 h at 37° C., under shaking (90 rpm) and anaerobic conditions. The incubations were performed in fully independent reactors with sufficiently high volume in order to not only ensure robust microbial fermentation, but also to allow the collection of multiple samples over time. Sample collection enables assessment of metabolite production and thus to understand the complex microbial interactions that are taking place. An assessment was made of the change in pH, and of gas, SCFA, ammonium and lactate production at the start of the incubation and after 6 h, 24 h and 48 h. Quantitative deep shotgun sequencing was performed at the start and after 24 h and 48 h of incubation. Targeted metabolic analysis of eight polyamines, an amino acid and a neurotransmitter was performed at the start of the incubation, and after 6 h, 24 h and 48 h. Targeted metabolic analysis: Eight different polyamines were targeted, more specifically putrescine, agmatine, acetyl-agmatine, omithine, spermidine, spermine, citrulline and 4-guanidinobutanoic acid. Additionally, samples were analyzed for amino acid arginine and neurotransmitter gamma-Aminobutyric acid (GABA).

[29] = tested on: gut microbial polyamines, longevity; conditions: arginine intake from 0 to 9 mg/g body weight; abolished after antibiotics use; cited from earlier work
[30] = target: imidazoline or α-2-adrenergic receptors; conditions: cited from earlier work
[31] = No observed effect level (max dose without toxicity); format: in vivo; conditions: [33]
[32] = human, putrescine in test meal; cited from earlier work
[33] = rat, ten minutes after radiolabeled intravenous (IV) injection; cited from earlier work
autophagy = conditions: depending on organ/cell type; cited from earlier work
polyamines synthesis = conditions: mouse model of osteoporosis; cited from earlier work

For `NCCCCN=C(N)N` [Agmatine, (4-aminobutyl) guanidine], the Ki [1] is given as 240 nM, the Ki [2] is given as 6 µM and the Ki [3] is given as 74.4 µM. The Ki [4] was 7.5 µM, the Ki [5] was greater than 100 µM and the “level at which agmatine interferes with polyamine metabolism, nitric oxide synthase and promotes antiproliferative effects” value [6] was 1 mM. For the same compound, the Ki (α2C-Adrenoceptors) was 26.3 µM, the Inhibition [7] was “Inhibition at 0.1 and 1 μM” and the Ki [8] was 14.8 µM. The IC50 [9] was greater than 1 mM, the Ki (α2B-Adrenoceptors) was 164 µM and the IC50 (5-HT3 receptor) was 708 µM. For the same compound, the Ki (5-HT3 receptor) was greater than 1 mM, the Ki [10] was 856 µM and the IC50 [11] was 289 µM. The Ki [12] was 240 nM, the IC50 (σ2-Binding sites [13]) was greater than 1 mM and the Ki [14] was 33 nM. For the same compound, the Ki [15] was 98 nM, the Ki [16] was 700 nM and the Ki (α2A-Adrenoceptors) was 47 µM. The IC50 [17] was 326 µM, the Ki (NMDA receptor) was 50 µM and the Ki [18] was greater than 300 µM. The “effect on ODC and SSAT in liver and kidney” value [19] was “inhibition of ODC and activation of SSAT”, the “effect on epithelial cell proliferation in kidney renal tubule” value [19] was “partial reduction of epithelial cell proliferation” and the Ki [20] was 417 µM. For the same compound, the IC50 [21] was 286 µM, the Ki (α-2 adrenoreceptors) was 0.8 to 164 µM and the Ki (α2-Adrenoceptors) was 11 to 20 µM and 17 µM. The Ki [22] was 127 nM, the Ki [23] was 630 nM and the Ki [24] was 219 µM. The IC50 [25] was 330 µM, the “level at which agmatine interferes with polyamine metabolism, nitric oxide synthase and promotes antiproliferative effects” value (HTC rat hepatoma cells) was 0.01 mM and the Ki [26] was 266 µM. For the same compound, the Ki (σ2-Binding sites [27]) was 668 µM and the “no observed effect level (max dose without toxicity)” value ([28]; in vivo) was 2.67 g daily.

For `N=C(N)NCCC[C@H](N)C(=O)O` [Arginine, arginine], the agmatine produced (colonic microbiota; stool sample of donor A) was “about 5 μM”, the agmatine produced (colonic microbiota; stool sample of donor B) was “about 3 μM” and the agmatine produced (colonic microbiota; stool sample of donor C) was “did not produce agmatine”. For the same compound, the agmatine produced (colonic microbiota; stool sample of donor D) was “did not produce agmatine”, the agmatine produced (colonic microbiota; stool sample of donor E) was “about 5 μM” and the “effect on fecal concentration of putrescine and spermidine” value [29] was “increased”. For the same compound, the Ki [30] was 5 mM.

For `NCCCCN` [Putrescine, putrescine], the “no observed effect level (max dose without toxicity), total amount in brackets” value [31] is listed as “(~12 g)”, the recovered in blood [32] is listed as “Up to 20%” and the plasma decrease [33] is listed as 67%. The “no observed effect level (max dose without toxicity)” value [28, 33] was 180 mg/kg body mg/kg body weight/day.

For `NCCCCNCCCN` [Spermidine, spermidine], the “no observed effect level (max dose without toxicity), total amount in brackets” value [31] is given as “(~5.4 g)”, the plasma decrease [33] is given as 89% and the “Dose required for cytoprotective effect/e.g. autophagy” value (autophagy) is given as 10 to 100 µM. The “no observed effect level (max dose without toxicity)” value [28, 33] was 83 mg/kg body mg/kg body weight/day.

In the case of `NCCCNCCCCNCCCN` [Spermine, spermine], the plasma decrease [33] is listed as 30%.

For `CC(=O)NCC(=O)O.CC(=O)NCC(=O)O.N=C(N)c1ccc(N=NNc2ccc(C(=N)N)cc2)cc1` [diminazene aceturate], the “effect on warm-induced bone benefits” value (polyamines synthesis) is listed as “limited the warm-induced beneficial effects”.
